Assay results reported in publication PMC8765437, “GSK3640254 Is a Novel HIV-1 Maturation Inhibitor with an Optimized Virology Profile” (Antimicrobial Agents and Chemotherapy, 2022).

Columns and labels:
[1] = tested on: HIV-2 strains; assay: HIV-2 strains, luciferase activity in CEM-NKR-CCR5-Luc cells; type: cell-based
Experimental: Virus yields were measured in dose-response experiments by either luciferase activity in human T-cells (CEM-NKR-CCR5-Luc), extracellular reverse transcriptase activity in MT-2 cells (T-tropic viruses), or extracellular p24 antigen in PM1 cells (M-tropic viruses).
Multiple-cycle assays using recombinant viruses or clinical isolates were used to assess MI antiviral activity as described previously ([10]). pNLRepRlucP373S (the P373S change is in the Gag gene and converts an outlier polymorphism in the NL4-3 gene to the prevalent amino acid in the population) plasmids containing SDMs in Gag or gag/pr regions from clinical isolates were transfected into HEK 293T cells, and the supernatant containing recombinant virus was harvested after 4 to 5 days. Virus was used to infect MT-2 cells in the presence of a 3-fold serially diluted compound at a final dimethyl sulfoxide (DMSO) concentration of 1%. The inocula of the reporter viruses were determined based on the luciferase activity detected on day 4 postinfection. […] Virus growth was determined on days 4 to 5 postinfection for reporter variants or days 5 to 11 for the other viruses. The reporter viruses were detected by a luciferase assay according to manufacturer protocols (Brite-Glo luciferase kit [Promega] for CEM-NKR-CCR5-Luc cells and Dual-Luciferase Reporter 1000 assay system [Promega] for the other cells), and luminescence was detected on a Wallac Trilux. The growth of clinical isolates in PBMCs was quantitated by reverse transcriptase activity in a 96-well scintillation proximity assay (SPA). […] Luminescence was detected on a Wallac Trilux programmed for tritium counting with SPA beads in opaque plates. The growth of the reporter-free laboratory M-tropic strains and clinical isolates was monitored by a p24 enzyme-linked immunosorbent assay (ELISA; PerkinElmer Life Sciences, Waltham, MA) performed on culture supernatants.
Maximal percent inhibition values were calculated as MPI = 100 – (mean signals at the 2 highest concentrations of compound/mean signal of 2 no-drug control wells) × 100.

[2] = tested on: RepRlucNL4-3GagP373S variants; assay: Virus breakthrough in MT-2 cell culture in the presence of compound; type: cell-based, HIV-1; conditions: for Days to virus breakthrough, Expt 1 / Days to virus breakthrough, Expt 2: drug 80 nM; for samples exhibiting breakthrough: low and high MOIs, 80 nM, over the 46-day experiment
Experimental: The ability of virus to break through and grow in the presence of an inhibitory concentration of a compound in cell culture provides an indication of its resistance barrier. […] Experiments were performed in duplicate at a low or high MOI (0.005 and 0.05) and at a drug concentration of 80 nM with RepRlucP373S WT virus or SDM-containing virus with known Gag polymorphisms (Table 6).
Cultures were incubated at 37°C and 5% CO2 until ∼100% cytopathic effect (CPE) was observed. […] At each passage, 100 μL of culture supernatant was collected and stored at −20°C. When a culture reached 100% CPE, it was terminated, and supernatants were harvested for subsequent virus population sequencing.

[3] = Human immunodeficiency virus 2, HIV-2 ROD, first value in cell

| SMILES | EC50 ([1]; Human immunodeficiency virus 2, HIV-2 287) [µM] | EC50 [1, 3] [µM] | Days to virus breakthrough, Expt 1 ([2]; High MOI (0.05), V362I) [days] | Days to virus breakthrough, Expt 2 ([2]; High MOI (0.05), V362I) [days] | Days to virus breakthrough, Expt 1 ([2]; High MOI (0.05), V370A) [days] | Days to virus breakthrough, Expt 2 ([2]; High MOI (0.05), V370A) [days] | Days to virus breakthrough, Expt 1 ([2]; High MOI (0.05), V370M) [days] | Days to virus breakthrough, Expt 2 ([2]; High MOI (0.05), V370M) [days] | Days to virus breakthrough, Expt 1 ([2]; High MOI (0.05), Wild type) [days] | Days to virus breakthrough, Expt 2 ([2]; High MOI (0.05), Wild type) [days] | Days to virus breakthrough, Expt 1 ([2]; Low MOI (0.005), V362I) [days] | Days to virus breakthrough, Expt 2 ([2]; Low MOI (0.005), V362I) [days] | Days to virus breakthrough, Expt 1 ([2]; Low MOI (0.005), V370A) [days] | Days to virus breakthrough, Expt 2 ([2]; Low MOI (0.005), V370A) [days] | Days to virus breakthrough, Expt 1 ([2]; Low MOI (0.005), V370M) [days] | Days to virus breakthrough, Expt 2 ([2]; Low MOI (0.005), V370M) [days] | Days to virus breakthrough, Expt 1 ([2]; Low MOI (0.005), Wild type) [days] | Days to virus breakthrough, Expt 2 ([2]; Low MOI (0.005), Wild type) [days] | samples exhibiting breakthrough [2] |
| --- | --- | --- | --- | --- | --- | --- | --- | --- | --- | --- | --- | --- | --- | --- | --- | --- | --- | --- | --- |
| C=C(C)[C@@H]1CC[C@]2(NCCN3CCS(=O)(=O)CC3)CC[C@]3(C)[C@H](CC[C@@H]4[C@@]5(C)CC=C(C6=CC[C@@](CF)(C(=O)O)CC6)C(C)(C)[C@@H]5CC[C@]43C)[C@@H]12 [GSK’254] | 1.25 | > 3 | 11 | 11 | >46 | >46 | 21 | 11 | >46 | 18 | 46 | >46 | >46 | 11 | >46 | 18 | 14 | >46 | 9 of 16 |
| C=C(C)[C@@H]1CC[C@]2(NCCN3CCS(=O)(=O)CC3)CC[C@]3(C)[C@H](CC[C@@H]4[C@@]5(C)CC=C(c6ccc(C(=O)O)cc6)C(C)(C)[C@@H]5CC[C@]43C)[C@@H]12 [GSK’795, reference compound] |  | > 3 | 7 | 7 | 11 | 11 | 7 | 7 | 11 | 14 | 7 | 11 | 11 | 18 | 7 | 11 | >46 | 14 | 15 of 16 |
